# Target: T1, human CXCR3 (N-delta 4) (Homo sapiens, UniProt P49682)
# T1 construct: CD8 leader (N); Flag; expressed in transfected cells; membranes prepared
# T1 sequence (P49682 5-368 limits assumed): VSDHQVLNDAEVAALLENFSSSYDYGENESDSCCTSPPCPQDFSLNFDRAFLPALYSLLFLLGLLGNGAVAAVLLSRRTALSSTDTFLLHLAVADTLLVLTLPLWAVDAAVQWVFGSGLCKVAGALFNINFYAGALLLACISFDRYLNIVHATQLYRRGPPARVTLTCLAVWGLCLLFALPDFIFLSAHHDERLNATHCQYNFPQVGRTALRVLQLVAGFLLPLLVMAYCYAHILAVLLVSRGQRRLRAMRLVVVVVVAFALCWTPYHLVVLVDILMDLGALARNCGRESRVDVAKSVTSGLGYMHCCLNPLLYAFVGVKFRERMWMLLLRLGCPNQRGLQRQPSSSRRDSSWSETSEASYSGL
# Assay: Human CXCR3 (N-delta 4) Scintillation Proximity Assay (SPA), [125I] IP-10 binding to Ba/F3-hCXCR3 membranes
# Details: IC50 rating, Table 1; read-out: IC50
row,IC50 [nM],SMILES
1,< 25,CC[C@H]1CN(c2ncc(C(=O)NC3CC3)nc2C)CCN1C1CCN(C(=O)c2ccc(F)c(OC)c2)CC1 [compound 467]
2,< 25,CC[C@H]1CN(c2ncc(C(=O)NC3CC3)nc2C)[C@H](C)CN1C1CCN(C(=O)c2ccc(Cl)cc2)CC1 [compound 468]
3,< 25,CC[C@H]1CN(c2ncc(C(=O)NC3CC3)nc2C)CCN1C1CCN([C@@H](CO)c2ccc(Cl)cc2)CC1 [compound 469]
4,< 25,CC[C@H]1CN(c2ncc(C(=O)NC3CC3)nc2C)CCN1C1CCN([C@H](CO)c2ccc(Cl)cc2)CC1 [compound 470]
5,< 25,CC[C@H]1CN(c2ncc(C(=O)NC3CC3)nc2C)CCN1C1CCN([C@@H](CO)c2ccc(F)c(F)c2)CC1 [compound 471]
6,< 25,CC[C@H]1CN(c2ncc(C(=O)NC3CC3)nc2C)CCN1C1CCN([C@H](CO)c2ccc(F)c(F)c2)CC1 [compound 472]
7,< 25,CC[C@H]1CN(c2ncc(C(=O)NC3CC3)nc2C)CCN1C1CCN(Cc2ccc(C(F)(F)F)cc2)CC1 [compound 473]
8,< 25,CCNC(=O)c1cnc(N2C[C@H](CC)N(C3CCN(C(=O)c4ccc(Cl)cc4)CC3)C[C@H]2C)c(Cl)n1 [compound 474]
9,< 25,CC[C@H]1CN(c2ncc(C(=O)NC)nc2C)CCN1C1CCN(C(=O)c2ccc(OC(F)(F)F)cc2)CC1 [compound 475]
10,< 25,CC[C@H]1CN(c2ncc(C(N)=O)nc2Cl)CCN1C1CCN([C@@H](C(=O)OC)c2ccc(Cl)cc2)CC1 [compound 476]
11,< 25,CC[C@H]1CN(c2ncc(C(=O)NC)nc2C(F)(F)F)CCN1C1CCN(C(=O)c2ccc(Cl)cc2)CC1 [compound 477]
12,< 25,CC[C@H]1CN(c2ncc(C(N)=O)nc2C(F)(F)F)[C@H](C)CN1C1CCN(C(=O)c2ccc(Cl)cc2)CC1 [compound 478]
13,< 25,CC[C@H]1CN(c2ncc(C(=O)NC3(C)CC3)nc2C)[C@H](C)CN1C1CCN(C(=O)c2ccc(Cl)cc2)CC1 [compound 479]
14,< 25,CC[C@H]1CN(c2nc(N)c(C(=O)NC3CC3)nc2C)[C@H](C)CN1C1CCN(C(=O)c2ccc(Cl)cc2)CC1 [compound 480]
15,< 25,CC[C@H]1CN(c2ncc(C(=O)NC3CC3)nc2C)[C@H](C)CN1C1CCN([C@H](CO)c2ccc(Cl)cc2)CC1 [compound 481]
16,< 25,CC[C@H]1CN(c2nc(N)c(C(=O)NCCO)nc2C)[C@H](C)CN1C1CCN(C(=O)c2ccc(Cl)cc2)CC1 [compound 482]
17,< 25,CC[C@H]1CN(c2ncc(C(=O)NC3CC3)nc2C)CCN1C1CCN(C(=O)c2ccc(C(F)(F)F)cc2)CC1 [compound 483]
18,< 25,CCNC(=O)c1cnc(N2CCN(C3CCN(C(=O)c4ccc(Cl)cc4)CC3)[C@@H](CC)C2)c(C(F)(F)F)n1 [compound 484]
19,< 25,CC[C@H]1CN(c2ncc(C(=O)NC3CC3)nc2C)CCN1C1CCN([C@@H](C(=O)OC)c2ccc(Cl)cc2)CC1 [compound 485]
20,< 25,CC[C@H]1CN(c2ncc(C(=O)NC3CC3)nc2C)CCN1C1CCN([C@@H](C(=O)OC)c2ccc(F)c(F)c2)CC1 [compound 486]
21,< 25,CCc1ccc(C(=O)N2CCC(N3CCN(c4ncc(C(=O)NC5CC5)nc4C(F)(F)F)C[C@@H]3CC)CC2)cc1 [compound 487]
22,< 25,CC[C@H]1CN(c2ncc(C(=O)NCCO)nc2C)[C@H](C)CN1C1CCN(Cc2ccc(OC(F)(F)F)cc2)CC1 [compound 488]
23,< 25,CC[C@H]1CN(c2ncc(C(=O)NC3CC3)nc2C(F)(F)F)CCN1C1CCN(C(=O)c2ccc(Cl)cc2)CC1 [compound 489]
24,< 25,CC[C@H]1CN(c2ncc(C(=O)NC3CC3)nc2C(F)(F)F)CCN1C1CCN(C(=O)c2ccc(F)c(F)c2)CC1 [compound 490]
25,< 25,CC[C@H]1CN(c2ncc(C(=O)NC3CC3)nc2C)CCN1C1CCN(Cc2ccc(Cl)c(OCCS(C)(=O)=O)c2)CC1 [compound 492]

# From patent US7868005B2, “Pyrazinyl substituted piperazine-piperidines with CXCR3 antagonist activity” (Schering Corporation, priority 2005, dated 2011)
